Source: article PMC7734590, “Identification of a Selective RelA Inhibitor Based on DSE-FRET Screening Methods” (International Journal of Molecular Sciences, 2020)
Structures can show the parent of a compound that is named as a salt. Where two headings read alike, the source gives them in different places. Each block holds one compound with its values, some of them ahead of it.

What was measured:
RelA = RelA (Homo sapiens, UniProt Q04206); test: DSE-FRET RelA–DNA binding inhibition; type: biochemical; design: Kinetic assay RelA Inhibition % ΔRFU(60 min-0 min) / RelA HTS % Inhibition / RelA Retest % Inhibition Run1 / RelA Retest % Inhibition Run2 / RelA Retest % Inhibition Avg. / Kinetic assay RelA % Inhibition ΔRFU(60 min-0 min): dose or concentration left out as unconfirmed
Chain of RelA (Q04206 19-306 limits assumed): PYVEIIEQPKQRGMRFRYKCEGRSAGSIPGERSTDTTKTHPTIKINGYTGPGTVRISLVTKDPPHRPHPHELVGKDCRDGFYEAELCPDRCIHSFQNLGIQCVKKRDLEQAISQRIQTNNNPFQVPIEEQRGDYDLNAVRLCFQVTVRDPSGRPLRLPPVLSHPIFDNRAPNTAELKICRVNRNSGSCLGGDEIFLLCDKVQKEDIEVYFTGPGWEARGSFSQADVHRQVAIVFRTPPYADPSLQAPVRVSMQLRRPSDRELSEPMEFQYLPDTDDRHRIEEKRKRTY

p52 = target: T1, p52 (Homo sapiens, UniProt Q00653); test: DSE-FRET p52–DNA binding inhibition; type: biochemical
T1 sequence (Q00653 1-454 limits assumed): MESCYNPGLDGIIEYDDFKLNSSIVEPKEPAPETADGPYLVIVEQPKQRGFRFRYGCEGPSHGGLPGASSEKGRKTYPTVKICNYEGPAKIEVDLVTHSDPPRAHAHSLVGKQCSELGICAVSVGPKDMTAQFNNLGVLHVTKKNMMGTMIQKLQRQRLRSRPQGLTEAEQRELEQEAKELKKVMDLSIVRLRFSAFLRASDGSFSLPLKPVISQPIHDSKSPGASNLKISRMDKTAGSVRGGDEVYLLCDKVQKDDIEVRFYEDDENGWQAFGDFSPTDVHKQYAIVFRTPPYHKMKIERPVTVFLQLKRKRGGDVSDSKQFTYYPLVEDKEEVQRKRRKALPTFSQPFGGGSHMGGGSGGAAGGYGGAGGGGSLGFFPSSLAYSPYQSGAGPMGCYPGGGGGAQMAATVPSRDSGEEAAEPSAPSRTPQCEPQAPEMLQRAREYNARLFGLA

inhibition at 5 µg/mL (RelA; HTS, 5 µg/mL, NPDepo hits, read-out: RelA HTS % Inhibition @ 5 µg/mL): 128%
inhibition at 5 µg/mL (RelA; Retest Run1, 5 µg/mL, read-out: RelA Retest % Inhibition @ 5 µg/mL Run1): 138%
inhibition at 5 µg/mL (RelA; Retest Run2, 5 µg/mL, read-out: RelA Retest % Inhibition @ 5 µg/mL Run2): 146%
inhibition at 5 µg/mL (RelA; Retest average of Run1 and Run2, 5 µg/mL, read-out: RelA Retest % Inhibition @ 5 µg/mL Avg.): 142%
inhibition at 5 µg/mL (RelA; kinetic assay, 5 µg/mL, ΔRFU 60 min-0 min, read-out: Kinetic assay @ 5 µg/mL RelA Inhibition % ΔRFU(60 min-0 min)): -20%
inhibition at 5 µg/mL (p52; HTS, 5 µg/mL, NPDepo hits, read-out: p52 HTS % Inhibition @ 5 µg/mL): 127%
inhibition at 5 µg/mL (p52; Retest Run1, 5 µg/mL, read-out: p52 Retest % Inhibition @ 5 µg/mL Run1): 132%
inhibition at 5 µg/mL (p52; Retest Run2, 5 µg/mL, read-out: p52 Retest % Inhibition @ 5 µg/mL Run2): 145%
inhibition at 5 µg/mL (p52; Retest average of Run1 and Run2, 5 µg/mL, read-out: p52 Retest % Inhibition @ 5 µg/mL Avg.): 139%
inhibition at 5 µg/mL (p52; kinetic assay, 5 µg/mL, ΔRFU 60 min-0 min, read-out: Kinetic assay @ 5 µg/mL p52 Inhibition % ΔRFU(60 min-0 min)): -13%
Compound: COC(=O)[C@@H]1c2cc3c(c(O)c2[C@@H](O[C@@H]2O[C@@H](C)[C@H](OC)[C@@](C)(OC)[C@H]2OC)C[C@]1(C)O)C(=O)c1c(O)cc2c(c1C3=O)O[C@@H]1O[C@@]2(C)[C@H](O)[C@@H](N(C)C)[C@@H]1O [Nogalamycin]

Kinetic assay RelA % Inhibition ΔRFU(60 min-0 min) (RelA; kinetic assay): -1.49%
Kinetic assay p52 % Inhibition ΔRFU(60 min-0 min) (p52; kinetic assay): -1.17%
Compound: OCCN(CCO)c1nc(N2CCCCC2)c2nc(N(CCO)CCO)nc(N3CCCCC3)c2n1 [DIPYRIDAMOLE]

inhibition at 10 µM (RelA; HTS, known drugs, 10 µM, read-out: RelA HTS % Inhibition @ 10 µM): 56.7%
Kinetic assay RelA % Inhibition ΔRFU(60 min-0 min) (RelA; kinetic assay): -18%
inhibition at 10 µM (RelA; retest, Run1, 10 µM, read-out: RelA Retest % Inhibition @ 10 µM Run1): 60.6%
inhibition at 10 µM (RelA; retest, Run2, 10 µM, read-out: RelA Retest % Inhibition @ 10 µM Run2): 66.3%
inhibition at 10 µM (RelA; retest, average of Run1 and Run2, 10 µM, read-out: RelA Retest % Inhibition @ 10 µM Avg.): 63.5%
inhibition at 10 µM (p52; HTS, known drugs, 10 µM, read-out: p52 HTS % Inhibition @ 10 µM): 70.9%
Kinetic assay p52 % Inhibition ΔRFU(60 min-0 min) (p52; kinetic assay): -16%
inhibition at 10 µM (p52; retest, Run1, 10 µM, read-out: p52 Retest % Inhibition @ 10 µM Run1): 60.7%
inhibition at 10 µM (p52; retest, Run2, 10 µM, read-out: p52 Retest % Inhibition @ 10 µM Run2): 69.7%
inhibition at 10 µM (p52; retest, average of Run1 and Run2, 10 µM, read-out: p52 Retest % Inhibition @ 10 µM Avg.): 65.2%
Compound: CCN(CC)CCCC(C)Nc1c2ccc(Cl)cc2nc2ccc(OC)cc12 (centres unmarked) [QUINACRINE HYDROCHLORIDE]

Compound: COc1ccc2[nH]cc(C3=CCNCC3)c2c1.COc1ccc2[nH]cc(C3=CCNCC3)c2c1.O=C(O)CCC(=O)O [RU 24969 hemisuccinate]
Kinetic assay RelA % Inhibition ΔRFU(60 min-0 min) (RelA; kinetic assay): -19%
Kinetic assay p52 % Inhibition ΔRFU(60 min-0 min) (p52; kinetic assay): -22%

Kinetic assay RelA % Inhibition ΔRFU(60 min-0 min) (RelA; kinetic assay): -0.814%
Kinetic assay p52 % Inhibition ΔRFU(60 min-0 min) (p52; kinetic assay): -2%
Compound: SN 38
